Assay results published in patent US20230265116A1, “DEGRADATION OF (EGFR) BY CONJUGATION OF EGFR INHIBITORS WITH E3 LIGASE LIGAND AND METHODS OF USE” (BEIGENE, LTD., priority 2020, published 2023).

Experiments:
[1] = target: T1, EGFR L858R/T790M/C797S (BaF3-LTC cells) (Homo sapiens, UniProt P00533, C797S/L858R/T790M); assay: EGFR degradation HTRF assay, BaF3-LTC cells; format: cell-based; conditions: BaF3-LTC, 16h treatment; for Dmax: maximum percentage of degradation, read-out: LTC Dmax (%); for DC50: read-out: LTC DC50
T1 construct: expressed in transfected cells; host or cells: BaF3
T1 sequence (P00533 25-1210 T790M/C797S/L858R): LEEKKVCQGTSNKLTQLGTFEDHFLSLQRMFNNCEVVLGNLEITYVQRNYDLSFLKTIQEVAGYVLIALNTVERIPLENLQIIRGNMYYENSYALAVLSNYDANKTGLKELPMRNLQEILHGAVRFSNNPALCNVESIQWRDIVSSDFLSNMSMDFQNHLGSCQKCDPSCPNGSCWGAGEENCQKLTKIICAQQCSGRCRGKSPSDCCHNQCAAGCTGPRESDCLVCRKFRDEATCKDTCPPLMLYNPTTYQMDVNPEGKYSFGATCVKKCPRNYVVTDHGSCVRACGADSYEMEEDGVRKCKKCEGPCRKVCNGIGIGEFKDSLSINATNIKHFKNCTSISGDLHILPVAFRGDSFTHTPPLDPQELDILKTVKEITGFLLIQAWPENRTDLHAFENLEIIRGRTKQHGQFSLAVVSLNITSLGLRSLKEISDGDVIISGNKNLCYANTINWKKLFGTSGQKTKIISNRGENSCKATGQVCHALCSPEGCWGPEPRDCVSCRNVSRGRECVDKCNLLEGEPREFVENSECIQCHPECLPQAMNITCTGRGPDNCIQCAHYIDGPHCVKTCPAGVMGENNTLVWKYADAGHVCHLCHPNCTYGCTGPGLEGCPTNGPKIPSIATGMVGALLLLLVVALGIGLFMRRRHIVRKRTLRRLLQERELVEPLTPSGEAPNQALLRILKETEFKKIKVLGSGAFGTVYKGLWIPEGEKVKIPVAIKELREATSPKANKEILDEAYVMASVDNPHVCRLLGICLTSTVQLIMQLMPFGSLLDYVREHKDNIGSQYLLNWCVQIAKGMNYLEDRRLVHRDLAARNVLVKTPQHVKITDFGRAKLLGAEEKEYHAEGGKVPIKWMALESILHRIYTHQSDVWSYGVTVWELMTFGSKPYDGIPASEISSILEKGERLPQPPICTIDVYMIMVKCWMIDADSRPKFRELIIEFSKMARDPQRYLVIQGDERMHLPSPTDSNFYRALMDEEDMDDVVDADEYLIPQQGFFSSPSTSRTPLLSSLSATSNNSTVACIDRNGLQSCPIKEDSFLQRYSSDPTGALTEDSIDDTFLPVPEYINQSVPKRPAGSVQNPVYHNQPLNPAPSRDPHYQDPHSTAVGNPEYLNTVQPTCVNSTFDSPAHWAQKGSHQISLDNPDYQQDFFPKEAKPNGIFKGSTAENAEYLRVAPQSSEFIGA
In short: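 EGFR remaining after a 16 h, 37 °C exposure (8 doses, 5-fold steps from 10 uM final, 0.2% DMSO) was quantified by HTRF antibodies in cell lysate. Percent inhibition relative to DMSO control was fitted by four-parameter logistic to give DC50; Dmax denotes maximal degradation.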

[2] = system: EGFR Del19/T790M/C797S (BaF3-DTC cells); assay: EGFR degradation HTRF assay, BaF3-DTC cells; format: cell-based; conditions: 16h treatment; for DTC Dmax (%): maximum percentage of degradation; for DC50: read-out: DTC DC50
In short: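 BaF3 (WT, Del19/T790M/C797S) and HCC827 cells exposed 16 h at 37 °C, 5% CO2 to compounds in 0.2% DMSO medium, 8 doses from 10 uM top, 5-fold steps. Lysates read by HTRF (665/620 nm); degradation % vs DMSO control, DC50 from four-parameter fit, Dmax as maximal degradation.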

**Q.** What does the source list for CCc1cc(Nc2ncc(Br)c(Nc3ccc4nccnc4c3P(C)(C)=O)n2)c(OC)cc1N1CCC(N2CCN(CCc3cc(Cl)c(C4CCC(=O)NC4=O)cc3F)CC2)CC1 (centres unmarked) [Example 166, 3-(4-(2-(4-(1-(4-((5-bromo-4-((5-(dimethylphosphoryl)quinoxalin-6-yl)amino)pyrimidin-2-yl)amino)-2-ethyl-5-methoxyphenyl)piperidin-4-yl)piperazin-1-yl)ethyl)-2-chloro-5-fluorophenyl)piperidine-2,6-dione]?
**A.** Dmax [1]: 80.1%; DC50 [1]: 49.3 nM; DTC Dmax (%) [2]: 85.99%; DC50 [2]: 13.5 nM

**Q.** CCc1cc(Nc2ncc(Br)c(Nc3ccc4nccnc4c3P(C)(C)=O)n2)c(OC)cc1N1CCC(N2CCN(CC3CN(c4ccc5c(c4)C(=O)N(C4CCC(=O)NC4=O)C5)C3)CC2)CC1 (centres unmarked) [Example 239, 3-(6-(3-((4-(1-(4-((5-bromo-4-((5-(dimethylphosphoryl)quinoxalin-6-yl)amino)pyrimidin-2-yl)amino)-2-ethyl-5-methoxyphenyl)piperidin-4-yl)piperazin-1-yl)methyl)azetidin-1-yl)-1-oxoisoindolin-2-yl)piperidine-2,6-dione] was tested. Which Dmax [1] did it give?
**A.** 87%

**Q.** What about the DC50 [1] of the same compound?
**A.** 12.3 nM

**Q.** What about the “DTC Dmax (%)” value [2] of the same compound?
**A.** 88.8%

**Q.** And the DC50 [2]?
**A.** 3.34 nM

**Q.** What does the source list for CCc1cc(Nc2ncc(Br)c(Nc3ccc4nc(C)ccc4c3P(C)(C)=O)n2)c(OC)cc1N1CCC(N2CCN(C(=O)CNc3cc(F)c(C4CCC(=O)NC4=O)c(F)c3)CC2)CC1 (centres unmarked) [Example 432, 3-(4-((2-(4-(1-(4-((5-bromo-4-((5-(dimethylphosphoryl)-2-methylquinolin-6-yl)amino)pyrimidin-2-yl)amino)-2-ethyl-5-methoxyphenyl)piperidin-4-yl)piperazin-1-yl)-2-oxoethyl)amino)-2,6-difluorophenyl)piperidine-2,6-dione]?
**A.** Dmax [1]: 93%; DC50 [1]: 4.24 nM; DTC Dmax (%) [2]: 94.91%; DC50 [2]: 1.19 nM

**Q.** For CCc1cc(Nc2ncc(Br)c(Nc3ccc4nccnc4c3P(C)(C)=O)n2)c(OC)cc1N1CCC(N2CCN(C3CCN(c4ccc(C5CCC(=O)NC5=O)cc4)CC3)CC2)CC1 (centres unmarked) [Example 299, 3-(4-(4-(4-(1-(4-((5-bromo-4-((5-(dimethylphosphoryl)quinoxalin-6-yl)amino)pyrimidin-2-yl)amino)-2-ethyl-5-methoxyphenyl)piperidin-4-yl)piperazin-1-yl)piperidin-1-yl)phenyl)piperidine-2,6-dione], which Dmax [1] is on record?
**A.** 85%

**Q.** And the DC50 [1]?
**A.** 36.4 nM

**Q.** And the “DTC Dmax (%)” value [2]?
**A.** 80.72%

**Q.** What about the DC50 [2] of the same compound?
**A.** 4.88 nM

**Q.** Which Dmax [1] does the source give for CCc1cc(Nc2ncc(Br)c(Nc3ccc4nccnc4c3P(C)(C)=O)n2)c(OC)cc1N1CCC(N2CCN(C(=O)[C@H]3CCN(c4ccc(C5CCC(=O)NC5=O)cc4)C3)CC2)CC1 (stereo partly drawn) [Example 223, 3-(4-((S)-3-(4-(1-(4-((5-bromo-4-((5-(dimethylphosphoryl)quinoxalin-6-yl)amino)pyrimidin-2-yl)amino)-2-ethyl-5-methoxyphenyl)piperidin-4-yl)piperazine-1-carbonyl)pyrrolidin-1-yl)phenyl)piperidine-2,6-dione] here?
**A.** 82.9%

**Q.** And the DC50 [1]?
**A.** 31.3 nM

**Q.** What about the “DTC Dmax (%)” value [2] of the same compound?
**A.** 86.61%

**Q.** What about the DC50 [2] of the same compound?
**A.** 8.56 nM

**Q.** Which results are given for CCc1cc(Nc2ncc(Br)c(Nc3ccc4nc(C)ccc4c3P(C)(C)=O)n2)c(OC)cc1N1CCC(N2CCN(C(=O)C3CCN(c4ccc5c(c4)n(C)c(=O)n5C4CCC(=O)NC4=O)CC3)CC2)CC1 (centres unmarked) [Example 210, 3-(5-(4-(4-(1-(4-((5-bromo-4-((5-(dimethylphosphoryl)-2-methylquinolin-6-yl)amino)pyrimidin-2-yl)amino)-2-ethyl-5-methoxyphenyl)piperidin-4-yl)piperazine-1-carbonyl)piperidin-1-yl)-3-methyl-2-oxo-2,3-dihydro-1H-benzo[d]imidazol-1-yl)piperidine-2,6-dione]?
**A.** Dmax [1]: 90.5%; DC50 [1]: 1.24 nM; DTC Dmax (%) [2]: 92.69%; DC50 [2]: 0.781 nM

**Q.** What does the source list for CCc1cc(Nc2ncc(Br)c(Nc3ccc4nc(C)ccc4c3P(C)(C)=O)n2)c(OC)cc1N1CCC(N2CCN(CC3CCN(c4cc(F)c(NC5CCC(=O)NC5=O)c(F)c4)CC3)CC2)CC1 (centres unmarked) [Example 718, 3-((4-(4-((4-(1-(4-((5-bromo-4-((5-(dimethylphosphoryl)-2-methylquinolin-6-yl)amino)pyrimidin-2-yl)amino)-2-ethyl-5-methoxyphenyl)piperidin-4-yl)piperazin-1-yl)methyl)piperidin-1-yl)-2,6-difluorophenyl)amino)piperidine-2,6-dione]?
**A.** Dmax [1]: 89.6%; DC50 [1]: 121 nM; DTC Dmax (%) [2]: 79.24%; DC50 [2]: 25.6 nM

**Q.** What does the source list for CCc1cc(Nc2ncc(Br)c(Nc3ccc4nccnc4c3P(C)(C)=O)n2)c(OC)cc1N1CCC(N2CCN(C3CN(c4cc(F)c(C5CCC(=O)NC5=O)c(F)c4)C3)CC2)CC1 (centres unmarked) [Example 302, 3-(4-(3-(4-(1-(4-((5-bromo-4-((5-(dimethylphosphoryl)quinoxalin-6-yl)amino)pyrimidin-2-yl)amino)-2-ethyl-5-methoxyphenyl)piperidin-4-yl)piperazin-1-yl)azetidin-1-yl)-2,6-difluorophenyl)piperidine-2,6-dione]?
**A.** Dmax [1]: 83.8%; DC50 [1]: 17 nM; DTC Dmax (%) [2]: 88.36%; DC50 [2]: 6.02 nM

**Q.** Which results are given for CCc1cc(Nc2ncc(Br)c(Nc3ccc4nccnc4c3P(C)(C)=O)n2)c(OC)cc1N1CCC(N2CCN(C(=O)[C@H]3CCN(c4ccc5c(c4)CN(C4CCC(=O)NC4=O)C5=O)C3)CC2)CC1 (stereo partly drawn) [Example 240, 3-(5-((S)-3-(4-(1-(4-((5-bromo-4-((5-(dimethylphosphoryl)quinoxalin-6-yl)amino)pyrimidin-2-yl)amino)-2-ethyl-5-methoxyphenyl)piperidin-4-yl)piperazine-1-carbonyl)pyrrolidin-1-yl)-1-oxoisoindolin-2-yl)piperidine-2,6-dione]?
**A.** Dmax [1]: 87.7%; DC50 [1]: 5.95 nM; DTC Dmax (%) [2]: 89.2%; DC50 [2]: 3.83 nM

**Q.** For CCc1cc(Nc2ncc(Br)c(Nc3ccc4nccnc4c3P(C)(C)=O)n2)c(OC)cc1N1CCC(N2CCN(CCc3ccc(C4CCC(=O)NC4=O)c(F)c3)[C@@H](COC)C2)CC1 (stereo partly drawn) [Example 293, 3-(4-(2-((R)-4-(1-(4-((5-bromo-4-((5-(dimethylphosphoryl)quinoxalin-6-yl)amino)pyrimidin-2-yl)amino)-2-ethyl-5-methoxyphenyl)piperidin-4-yl)-2-(methoxymethyl)piperazin-1-yl)ethyl)-2-fluorophenyl)piperidine-2,6-dione], which Dmax [1] is on record?
**A.** 85.3%

**Q.** What about the DC50 [1] of the same compound?
**A.** 43.7 nM

**Q.** What about the “DTC Dmax (%)” value [2] of the same compound?
**A.** 83.85%

**Q.** What about the DC50 [2] of the same compound?
**A.** 17.4 nM

**Q.** Which results are given for CCc1cc(Nc2ncc(Br)c(Nc3ccc4nc(C)ccc4c3P(C)(C)=O)n2)c(OC)cc1N1CCC(N2CCN(CCc3cc(F)c(C4CCC(=O)NC4=O)c(F)c3)C[C@@H]2C)CC1 (stereo partly drawn) [Example 715, 3-(4-(2-((S)-4-(1-(4-((5-bromo-4-((5-(dimethylphosphoryl)-2-methylquinolin-6-yl)amino)pyrimidin-2-yl)amino)-2-ethyl-5-methoxyphenyl)piperidin-4-yl)-3-methylpiperazin-1-yl)ethyl)-2,6-difluorophenyl)piperidine-2,6-dione]?
**A.** Dmax [1]: 89.8%; DC50 [1]: 7.08 nM; DTC Dmax (%) [2]: 92.57%; DC50 [2]: 4.3 nM
